Test results as given in patent US10251395B2, “Substituted furano-/thienocycloalkylamino-2-pyrimidine derivatives and use thereof for controlling undesired plant growth” (Bayer CropScience Aktiengesellschaft, priority 2015, dated 2019).

How the values were obtained:
Format in all cases: in vivo
Setaria viridis [1] = assay: Pre-emergence herbicidal effect; conditions: scored visually after 3 weeks
Method in brief: (§1)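 Seeds sown in sandy loam in wood-fiber pots and covered with soil; WP or EC formulations applied to the soil surface as aqueous suspension or emulsion at 600 to 800 L/ha water with 0.2% wetting agent. Greenhouse, 3 weeks; damage scored visually versus untreated controls (100% = plants died, 0% = like control).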

Stellaria media [2] = assay: Pre-emergence herbicidal effect; conditions: scored visually after 3 weeks
Method in brief: as §1

Veronica persica [3] = assay: Pre-emergence herbicidal effect; conditions: scored visually after 3 weeks
Method in brief: as §1

Cyperus esculentus = assay: Pre-emergence herbicidal effect; conditions: scored visually after 3 weeks
Method in brief: as §1

Lolium multiflorum [4] = assay: Pre-emergence herbicidal effect; conditions: scored visually after 3 weeks
Method in brief: as §1

Alopecurus myosuroides [5] = assay: Pre-emergence herbicidal effect; conditions: scored visually after 3 weeks
Method in brief: as §1

Echinochloa crus-galli [6] = assay: Pre-emergence herbicidal effect; conditions: scored visually after 3 weeks
Method in brief: as §1

Avena fatua [7] = assay: Pre-emergence herbicidal effect; conditions: scored visually after 3 weeks
Method in brief: as §1

Abutilon theophrasti [8] = assay: Pre-emergence herbicidal effect; conditions: scored visually after 3 weeks
Method in brief: as §1

Viola tricolor [9] = assay: Pre-emergence herbicidal effect; conditions: scored visually after 3 weeks
Method in brief: as §1

Amaranthus retroflexus [10] = assay: Pre-emergence herbicidal effect; conditions: scored visually after 3 weeks
Method in brief: as §1

Matricaria inodora [11] = assay: Pre-emergence herbicidal effect; conditions: scored visually after 3 weeks
Method in brief: as §1

Polygonum convolvulus [12] = assay: Pre-emergence herbicidal effect; conditions: scored visually after 3 weeks
Method in brief: as §1

Setaria viridis [13] = assay: Post-emergence herbicidal effect; conditions: assessed visually after about 3 weeks vs untreated controls
Method in brief: (§2)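 Visual % damage vs untreated plants, ~3 wk after spraying (100% = dead, 0% = as control). Post-emergence foliar spray at one-leaf stage; WP/EC in water, 600–800 L/ha + 0.2% wetting agent; sandy loam, greenhouse.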

Stellaria media [14] = assay: Post-emergence herbicidal effect; conditions: assessed visually after about 3 weeks vs untreated controls
Method in brief: as §2

Veronica persica [15] = assay: Post-emergence herbicidal effect; conditions: assessed visually after about 3 weeks vs untreated controls
Method in brief: as §2

Lolium multiflorum [16] = assay: Post-emergence herbicidal effect; conditions: assessed visually after about 3 weeks vs untreated controls
Method in brief: as §2

Alopecurus myosuroides [17] = assay: Post-emergence herbicidal effect; conditions: assessed visually after about 3 weeks vs untreated controls
Method in brief: as §2

Echinochloa crus-galli [18] = assay: Post-emergence herbicidal effect; conditions: assessed visually after about 3 weeks vs untreated controls
Method in brief: as §2

Avena fatua [19] = assay: Post-emergence herbicidal effect; conditions: assessed visually after about 3 weeks vs untreated controls
Method in brief: as §2

Abutilon theophrasti [20] = assay: Post-emergence herbicidal effect; conditions: assessed visually after about 3 weeks vs untreated controls
Method in brief: as §2

Viola tricolor [21] = assay: Post-emergence herbicidal effect; conditions: assessed visually after about 3 weeks vs untreated controls
Method in brief: as §2

Amaranthus retroflexus [22] = assay: Post-emergence herbicidal effect; conditions: assessed visually after about 3 weeks vs untreated controls
Method in brief: as §2

Matricaria inodora [23] = assay: Post-emergence herbicidal effect; conditions: assessed visually after about 3 weeks vs untreated controls
Method in brief: as §2

Ipomoea purpurea = assay: Post-emergence herbicidal effect; conditions: assessed visually after about 3 weeks vs untreated controls
Method in brief: as §2

Polygonum convolvulus [24] = assay: Post-emergence herbicidal effect; conditions: assessed visually after about 3 weeks vs untreated controls
Method in brief: as §2

Cc1cc2c(s1)CCC[C@H]2Nc1ncc(I)c(N)n1 [compound 173]
90%: SETVI pre-emergence efficacy (herbicidal activity) (Setaria viridis [1]; Dosage 80 g/ha) | VERPE pre-emergence efficacy (herbicidal activity) (Veronica persica [3]; Dosage 80 g/ha) | POLCO pre-emergence efficacy (herbicidal activity) (Polygonum convolvulus [12]; Dosage 80 g/ha) | post-emergence efficacy SETVI (Setaria viridis [13]; 320 g/ha) | post-emergence efficacy LOLMU (Lolium multiflorum [16]; 320 g/ha) | post-emergence efficacy AVEFA (Avena fatua [19]; 320 g/ha) | post-emergence efficacy ABUTH (Abutilon theophrasti [20]; 320 g/ha) | post-emergence efficacy VIOTR (Viola tricolor [21]; 80 g/ha) | post-emergence efficacy VIOTR (Viola tricolor [21]; 320 g/ha) | post-emergence efficacy AMARE (Amaranthus retroflexus [22]; 80 g/ha) | post-emergence efficacy AMARE (Amaranthus retroflexus [22]; 320 g/ha) | post-emergence efficacy MATIN (Matricaria inodora [23]; 320 g/ha) | post-emergence efficacy PHBPU (Ipomoea purpurea; 80 g/ha)
60%: CYPES pre-emergence efficacy (herbicidal activity) (Cyperus esculentus; Dosage 320 g/ha) | LOLMU pre-emergence efficacy (herbicidal activity) (Lolium multiflorum [4]; Dosage 80 g/ha) | ALOMY pre-emergence efficacy (herbicidal activity) (Alopecurus myosuroides [5]; Dosage 80 g/ha) | AVEFA pre-emergence efficacy (herbicidal activity) (Avena fatua [7]; Dosage 320 g/ha) | post-emergence efficacy LOLMU (Lolium multiflorum [16]; 80 g/ha) | post-emergence efficacy MATIN (Matricaria inodora [23]; 80 g/ha) | post-emergence efficacy POLCO (Polygonum convolvulus [24]; 320 g/ha)
80%: ALOMY pre-emergence efficacy (herbicidal activity) (Alopecurus myosuroides [5]; Dosage 320 g/ha) | post-emergence efficacy SETVI (Setaria viridis [13]; 80 g/ha) | post-emergence efficacy ABUTH (Abutilon theophrasti [20]; 80 g/ha)
100%: SETVI pre-emergence efficacy (herbicidal activity) (Setaria viridis [1]; Dosage 320 g/ha) | STEME pre-emergence efficacy (herbicidal activity) (Stellaria media [2]; Dosage 80 g/ha) | STEME pre-emergence efficacy (herbicidal activity) (Stellaria media [2]; Dosage 320 g/ha) | VERPE pre-emergence efficacy (herbicidal activity) (Veronica persica [3]; Dosage 320 g/ha) | LOLMU pre-emergence efficacy (herbicidal activity) (Lolium multiflorum [4]; Dosage 320 g/ha) | ECHCG pre-emergence efficacy (herbicidal activity) (Echinochloa crus-galli [6]; Dosage 80 g/ha) | ECHCG pre-emergence efficacy (herbicidal activity) (Echinochloa crus-galli [6]; Dosage 320 g/ha) | ABUTH pre-emergence efficacy (herbicidal activity) (Abutilon theophrasti [8]; Dosage 320 g/ha) | VIOTR pre-emergence efficacy (herbicidal activity) (Viola tricolor [9]; Dosage 80 g/ha) | VIOTR pre-emergence efficacy (herbicidal activity) (Viola tricolor [9]; Dosage 320 g/ha) | AMARE pre-emergence efficacy (herbicidal activity) (Amaranthus retroflexus [10]; Dosage 80 g/ha) | AMARE pre-emergence efficacy (herbicidal activity) (Amaranthus retroflexus [10]; Dosage 320 g/ha) | MATIN pre-emergence efficacy (herbicidal activity) (Matricaria inodora [11]; Dosage 80 g/ha) | MATIN pre-emergence efficacy (herbicidal activity) (Matricaria inodora [11]; Dosage 320 g/ha) | POLCO pre-emergence efficacy (herbicidal activity) (Polygonum convolvulus [12]; Dosage 320 g/ha) | post-emergence efficacy STEME (Stellaria media [14]; 80 g/ha) | post-emergence efficacy STEME (Stellaria media [14]; 320 g/ha) | post-emergence efficacy VERPE (Veronica persica [15]; 320 g/ha) | post-emergence efficacy ALOMY (Alopecurus myosuroides [17]; 320 g/ha) | post-emergence efficacy ECHCG (Echinochloa crus-galli [18]; 80 g/ha) | post-emergence efficacy ECHCG (Echinochloa crus-galli [18]; 320 g/ha) | post-emergence efficacy PHBPU (Ipomoea purpurea; 320 g/ha)

Cc1cc2c(s1)CCCC2Nc1ncc(C#N)c(N)n1 (stereo not shown) [compound 282]
90%: AVEFA pre-emergence efficacy (herbicidal activity) (Avena fatua [7]; Dosage 320 g/ha) | post-emergence efficacy VERPE (Veronica persica [15]; 320 g/ha) | post-emergence efficacy ABUTH (Abutilon theophrasti [20]; 80 g/ha) | post-emergence efficacy ABUTH (Abutilon theophrasti [20]; 320 g/ha) | post-emergence efficacy MATIN (Matricaria inodora [23]; 80 g/ha) | post-emergence efficacy MATIN (Matricaria inodora [23]; 320 g/ha) | post-emergence efficacy PHBPU (Ipomoea purpurea; 320 g/ha) | post-emergence efficacy POLCO (Polygonum convolvulus [24]; 80 g/ha) | post-emergence efficacy POLCO (Polygonum convolvulus [24]; 320 g/ha)
100%: SETVI pre-emergence efficacy (herbicidal activity) (Setaria viridis [1]; Dosage 80 g/ha) | SETVI pre-emergence efficacy (herbicidal activity) (Setaria viridis [1]; Dosage 320 g/ha) | STEME pre-emergence efficacy (herbicidal activity) (Stellaria media [2]; Dosage 80 g/ha) | STEME pre-emergence efficacy (herbicidal activity) (Stellaria media [2]; Dosage 320 g/ha) | VERPE pre-emergence efficacy (herbicidal activity) (Veronica persica [3]; Dosage 80 g/ha) | VERPE pre-emergence efficacy (herbicidal activity) (Veronica persica [3]; Dosage 320 g/ha) | CYPES pre-emergence efficacy (herbicidal activity) (Cyperus esculentus; Dosage 320 g/ha) | LOLMU pre-emergence efficacy (herbicidal activity) (Lolium multiflorum [4]; Dosage 80 g/ha) | LOLMU pre-emergence efficacy (herbicidal activity) (Lolium multiflorum [4]; Dosage 320 g/ha) | ALOMY pre-emergence efficacy (herbicidal activity) (Alopecurus myosuroides [5]; Dosage 80 g/ha) | ALOMY pre-emergence efficacy (herbicidal activity) (Alopecurus myosuroides [5]; Dosage 320 g/ha) | ECHCG pre-emergence efficacy (herbicidal activity) (Echinochloa crus-galli [6]; Dosage 80 g/ha) | ECHCG pre-emergence efficacy (herbicidal activity) (Echinochloa crus-galli [6]; Dosage 320 g/ha) | VIOTR pre-emergence efficacy (herbicidal activity) (Viola tricolor [9]; Dosage 80 g/ha) | VIOTR pre-emergence efficacy (herbicidal activity) (Viola tricolor [9]; Dosage 320 g/ha) | AMARE pre-emergence efficacy (herbicidal activity) (Amaranthus retroflexus [10]; Dosage 80 g/ha) | AMARE pre-emergence efficacy (herbicidal activity) (Amaranthus retroflexus [10]; Dosage 320 g/ha) | MATIN pre-emergence efficacy (herbicidal activity) (Matricaria inodora [11]; Dosage 80 g/ha) | MATIN pre-emergence efficacy (herbicidal activity) (Matricaria inodora [11]; Dosage 320 g/ha) | POLCO pre-emergence efficacy (herbicidal activity) (Polygonum convolvulus [12]; Dosage 80 g/ha) | POLCO pre-emergence efficacy (herbicidal activity) (Polygonum convolvulus [12]; Dosage 320 g/ha) | post-emergence efficacy SETVI (Setaria viridis [13]; 80 g/ha) | post-emergence efficacy SETVI (Setaria viridis [13]; 320 g/ha) | post-emergence efficacy STEME (Stellaria media [14]; 80 g/ha) | post-emergence efficacy STEME (Stellaria media [14]; 320 g/ha) | post-emergence efficacy LOLMU (Lolium multiflorum [16]; 80 g/ha) | post-emergence efficacy LOLMU (Lolium multiflorum [16]; 320 g/ha) | post-emergence efficacy ALOMY (Alopecurus myosuroides [17]; 80 g/ha) | post-emergence efficacy ALOMY (Alopecurus myosuroides [17]; 320 g/ha) | post-emergence efficacy ECHCG (Echinochloa crus-galli [18]; 80 g/ha) | post-emergence efficacy ECHCG (Echinochloa crus-galli [18]; 320 g/ha) | post-emergence efficacy AVEFA (Avena fatua [19]; 80 g/ha) | post-emergence efficacy AVEFA (Avena fatua [19]; 320 g/ha) | post-emergence efficacy VIOTR (Viola tricolor [21]; 80 g/ha) | post-emergence efficacy VIOTR (Viola tricolor [21]; 320 g/ha) | post-emergence efficacy AMARE (Amaranthus retroflexus [22]; 80 g/ha) | post-emergence efficacy AMARE (Amaranthus retroflexus [22]; 320 g/ha)
80%: CYPES pre-emergence efficacy (herbicidal activity) (Cyperus esculentus; Dosage 80 g/ha) | AVEFA pre-emergence efficacy (herbicidal activity) (Avena fatua [7]; Dosage 80 g/ha) | ABUTH pre-emergence efficacy (herbicidal activity) (Abutilon theophrasti [8]; Dosage 80 g/ha) | ABUTH pre-emergence efficacy (herbicidal activity) (Abutilon theophrasti [8]; Dosage 320 g/ha) | post-emergence efficacy VERPE (Veronica persica [15]; 80 g/ha) | post-emergence efficacy PHBPU (Ipomoea purpurea; 80 g/ha)
